According to patent EP4603477A1, “INHIBITORS OF THE CORONAVIRUS ACCESSORY PROTEIN ORF9B” (Consejo Superior De Investigaciones Científicas, priority 2024, dated 2025):

System: THP-1 cells stably integrating and constitutively expressing ORF9b
Experiment: Cytokine quantification (Procartaplex multiplex) in THP-1 cells expressing ORF9b
Type: cell-based
Settings: 1 µM or 5 µM
Protocol: THP-1 cells stably integrating and constitutively expressing ORF9b were generated as described under "Biochemical and biological activity (2)". Cytokines (IL-1β, IL-18, IL-10, TNF-α) were quantified by means of Procartaplex multiplex assays (InVitrogen, ThermoFisher), following instructions by the supplier. Briefly, capture beads were incubated for 2 h with cleared cell supernatants, washed and incubated with biotinylated detection antibody mix, incubated for 30 min, washed and incubated with Streptavidin-PE for 30 min, washed and data acquired on a Luminex 200 instrument. To ascertain the effect of ORF9b homodimerization inhibitors on ORF9b-mediated cytokine secretion, THP1-1 cells with the above modifications were treated with 1 µM or 5 µM of each of the compounds (final concentrations in cell culture media), and cytokine levels determined in cell culture supernatants. All determinations were performed in triplicate, and analyzed statistically significance in differences by means of a two-tailed Student's t-test. Inhibition of ORF9b-mediated secretion of cytokines was considered significant with p values ≤ 0.05.

| SMILES | ORF9b-induced release of IL-1β | ORF9b-induced release of IL-10 | ORF9b-induced release of IL-18 | ORF9b-induced release of TNF-α |
| --- | --- | --- | --- | --- |
| Nc1ccc(F)c(NC(=O)Cc2ccccc2)c1 [Compound 1] | inhibited | inhibited | inhibited |  |
| Nc1ccc(F)c(NC(=O)c2cccc3ccccc23)c1 [Compound 2, N-(5-Amino-2-fluorophenyl)-1-naphthamide] | inhibited | inhibited | inhibited |  |
| O=C(Cc1ccc(Cl)cc1)Nc1cc([N+](=O)[O-])ccc1F [Compound 6, 2-(4-Chlorophenyl)-N-(2-fluoro-5-nitrophenyl)acetamide] | inhibited | inhibited | inhibited |  |
| CC(C)(O)c1coc(S(=O)(=O)NC(=O)Nc2c3c(cc4c2CCC4)CCC3)c1 [MCC950, reference compound] | abrogated | abrogated | abrogated | abrogated |
